Reference: ChEMBL document CHEMBL2073834, “Transport of temocaprilat into rat hepatocytes: role of organic anion transporting polypeptide” (J Pharmacol Exp Ther, 1998)

Legend:
Type in all cases: functional, cell-based
[1] = target: T1, Solute carrier organic anion transporter family member 1A1 (Rattus norvegicus, UniProt P46720); assay: TP_TRANSPORTER: inhibition of Temocaprilat uptake (Temocaprilat: 0.1 uM, DBSB: 100 uM) in Oatp1-expressing COS-7 cells; settings: monkey, cos-7, 100 µM
T1 sequence (P46720 whole entry): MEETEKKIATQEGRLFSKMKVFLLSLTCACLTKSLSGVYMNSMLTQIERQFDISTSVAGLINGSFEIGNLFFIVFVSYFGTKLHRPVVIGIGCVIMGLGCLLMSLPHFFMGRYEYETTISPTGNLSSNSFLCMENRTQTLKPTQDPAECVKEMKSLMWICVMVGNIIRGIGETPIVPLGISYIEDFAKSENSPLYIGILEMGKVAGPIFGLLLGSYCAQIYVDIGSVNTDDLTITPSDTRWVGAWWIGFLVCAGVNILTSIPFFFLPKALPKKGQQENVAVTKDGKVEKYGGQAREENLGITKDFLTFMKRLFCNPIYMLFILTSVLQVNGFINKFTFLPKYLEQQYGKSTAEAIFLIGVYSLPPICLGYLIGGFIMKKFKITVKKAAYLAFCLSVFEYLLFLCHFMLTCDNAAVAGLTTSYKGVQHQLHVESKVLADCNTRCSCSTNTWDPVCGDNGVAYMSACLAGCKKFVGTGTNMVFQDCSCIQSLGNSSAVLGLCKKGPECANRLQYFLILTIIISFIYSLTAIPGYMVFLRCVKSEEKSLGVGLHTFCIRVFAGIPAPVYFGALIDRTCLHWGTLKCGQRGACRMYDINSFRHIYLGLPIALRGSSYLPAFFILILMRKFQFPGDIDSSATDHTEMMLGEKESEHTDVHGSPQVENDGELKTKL

[2] = target: T1, Solute carrier organic anion transporter family member 1A1; assay: TP_TRANSPORTER: inhibition of Temocaprilat uptake (Temocaprilat: 0.1 uM, E217betaG: 10 uM) in Oatp1-expressing COS-7 cells; settings: monkey, cos-7, 10 µM
[3] = substrate: C[C@]12CC[C@@H]3c4ccc(O)cc4CC[C@H]3[C@@H]1CC[C@@H]2O[C@@H]1O[C@H](C(=O)O)[C@@H](O)[C@H](O)[C@H]1O; assay: (§1) TP_TRANSPORTER: uptake in Oatp1-expressing COS-7 cells
[4] = substrate: O=C(O)CN1C[C@@H](c2cccs2)SC[C@H](N[C@@H](CCc2ccccc2)C(=O)O)C1=O; assay: as §1

O=C1OC(c2ccc(OS(=O)(=O)O)cc2)(c2ccc(OS(=O)(=O)O)cc2)c2c(Br)ccc(Br)c21 [DIBROMOSULFOPHTHALEIN]
Activity [1]: inhibitor [(at a rough estimate) 5 % of control]

C[C@]12CC[C@@H]3c4ccc(O)cc4CC[C@H]3[C@@H]1CC[C@@H]2O[C@@H]1O[C@H](C(=O)O)[C@@H](O)[C@H](O)[C@H]1O [ESTRADIOL 17B GLUCURONIDE]
Activity [2]: inhibitor [(at a rough estimate) 55 % of control]

B1: Solute carrier organic anion transporter family member 1A1 (Rattus norvegicus) (protein)
chain: T1 sequence (P46720 whole entry)
Km [3]: 11 µM
Km [4]: 46.7 µM
